Experimental data taken from patent publication US8168645B2, “Arylsulfonamide compounds” (Genentech, Inc., priority 2006, dated 2012).

Key:
[1] = target: GST tagged BCl-xL ΔC25 protein (Homo sapiens, UniProt Q07817); assay: Alphascreen competition binding assay, GST tagged Bcl-xL vs biotinylated Bim BH3-26 peptide; conditions: competition with Bim BH3-26 peptide; unit inferred
Excerpt: (§1) Measurement of competition of compounds of the invention with Bim26-mer for a Bcl-2 homologue binding site.
(§2) Alphascreen (Amplified Luminescent Proximity Homogenous Assay) is a bead based technology which measures the interaction between molecules. The assay consists of two hydrogel coated beads which, when bought into close proximity by a binding interaction, allow the transfer of singlet oxygen from a donor bead to an acceptor bead.
(§3) Upon binding and excitation with laser light at 680 nm, a photosensitizer in the donor bead converts ambient oxygen to a more excited singlet state. This singlet oxygen then diffuses across to react with a chemiluminescer in the acceptor bead. Fluorophores within the same bead are activated resulting in the emission of light at 580-620 nm.
(§4) Screening of the compounds of the invention was performed using the Alphascreen GST (glutathione s-transferase) detection kit system. Test compounds were titrated into the assay which consisted of GST tagged Bclw ΔC29 protein (0.05 nM Final concentration) and Biotinylated Bim BH3-26 peptide, Biotin-[…] (3.0 nM Final concentration). For the GST tagged BCl-xL assay, GST tagged BCl-xL ΔC25 protein (0.6 nM Final concentration) and Biotinylated Bim BH3-26 peptide, Biotin-[…] (5.0 nM final concentration) were used. To this reaction mix anti-GST coated acceptor beads and Streptavidin coated donor beads, both at 15 μg/ml Final concentration, were added and the assay mixture incubated for 4 hours at room temperature before reading. Similarly when the Bcl-2 protein was Mcl-1, GST tagged Mcl-1 protein (0.4 nM Final concentration) and Biotinylated Bak BH3 peptide, Biotin-[…]-OH (4.0 nM Final concentration) were used.
(§5) • 1) prepare a 384 well with 4.75 μL of buffer and 0.25 μL of compounds (20 mM in DMSO) per well. • 2) Mix the binding partners, in one tube add Bcl-w, BCl-xL or Mcl-1 and the acceptor beads, in the second tube add Biotinylated BH3 peptide and the donor beads. • 3) Pre-incubate the two pairs of binding partners for 30 minutes. • 4) Add 1 μL of acceptor beads:Bcl-w, BCl-xL or Mcl-1 protein mix to each well. • 5) Seal the plate and incubate at room temperature for 30 minutes. • 6) Add 10 μL of donor bead:BH3 peptide mix to each well. • 7) Seal the plate, cover with foil and incubate for 4 hours.
(§6) Assay buffer contained 50 mM Hepes pH 7.4, 10 mM DTT, 100 mM NaCl, 0.05% Tween and 0.1 mg/ml casein. Bead dilution buffer contained 50 mM Tris, pH 7.5, 0.01% Tween and 0.1 mg/ml casein. The final DMSO concentration in the assay was 0.5%. Assays were performed in 384 well white Optiplates and analyzed on the PerkinElmer Fusion alpha plate reader (Ex680, Em520-620 nM).
(§7) The GST Alphascreen detection kit and Optiplates were purchased from PerkinElmer.

[2] = target: GST tagged Mcl-1 protein (Homo sapiens, UniProt Q07820); assay: Alphascreen competition binding assay, GST tagged Mcl-1 vs biotinylated Bak BH3 peptide; conditions: competition with Bak BH3 peptide; unit inferred
Chain of GST tagged Mcl-1 protein (Q07820 whole entry): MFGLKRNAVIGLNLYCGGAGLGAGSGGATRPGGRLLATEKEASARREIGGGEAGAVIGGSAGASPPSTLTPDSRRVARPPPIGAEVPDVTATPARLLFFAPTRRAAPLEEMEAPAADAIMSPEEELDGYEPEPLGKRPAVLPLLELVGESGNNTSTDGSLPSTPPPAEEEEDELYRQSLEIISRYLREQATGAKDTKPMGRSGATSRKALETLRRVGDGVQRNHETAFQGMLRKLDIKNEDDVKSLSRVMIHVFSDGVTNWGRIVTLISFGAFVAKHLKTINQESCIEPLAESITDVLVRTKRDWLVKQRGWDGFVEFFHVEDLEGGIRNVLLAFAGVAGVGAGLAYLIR
Excerpt: as §1, §2, §3, §4, §5, §6, §7

[3] = test system: SCLC cell line NCI-H146; assay: CellTitre-Glow luminescent cytotoxicity assay, NCI-H146; format: cell-based; conditions: Homo sapiens; NCI-H146 cells, 48 hr incubation
Method: (§8) • 1. SCLC cell lines NCI-H889, NCI-H1963, and NCI-H146 were purchased from American Type Culture Collection. Cells were maintained in RPMI 1640 (Invitrogen Corp., Grand Island, N.Y.) supplemented with 10% fetal bovine serum (FBS, Invitrogen), 1% sodium pyruvate, 25 mM HEPES, 4.5 g/L glucose and 1% penicillin/streptomycin (Sigma) in a humidified chamber at 37° C. containing 5% CO2. • 2. cells were grown as suspension aggregates in a T162 flask with 25 ml medium and kept at concentration of 1 million/mL. Test Compound Stocks: • 1. test compounds were prepared as 10 mM stocks in DMSO and stored at −20° C. Test Compound Serial Dilutions: • 1. prewarmed medium to 37° C. • 2. thawed compounds to room temperature. • 3. determined what will be the highest concentration to be tested. (i.e. 10 μM). • 4. prepared a 2× stock in culture medium of the first dose (i.e. 2×10 μM=20 μM) in an Eppendorf tube (i.e. 4 μl of 5 mM stock into 1000 μl=20 μM). • 5. inverted tube several times to mix. […] Columns 1-10 comprised the serial test compound treatments, column 11 was the untreated control and column 12 was the ‘no cell’ control for determining the background. • 1. in a 96 well plate was added 50 μl medium/well in columns 2 thru 11 and 100 μl was added to column 12. • 2. in column 1 was added 100 μl of 2× compound. • 3. made serial dilutions by transferring 50 μl to column 2, and so on up to column 10. After adding 50 μl to column 10 and mixing, discarded 50 μl. • 4. stored plates at 37° C. until ready to add cells. Cell Preparation • 1. Cell were washed one time in the culture medium and prepared as a suspension. • a. cell were first spun down to remove the medium and then ˜1 ml 0.25% trypsin was added and gently mixed and incubated for no more than three minutes at room temperature. • b. ˜10 ml of the medium was added and the cells were gently pipetted several times. • c. cells were then counted and spun down to the volume necessary for the total cell number needed, then resuspended in the medium to 200 cells/μl concentration (50,000 cells/well). • 2. […]

[4] = test system: SCLC cell line NCI-H889; assay: CellTitre-Glow luminescent cytotoxicity assay, NCI-H889; format: cell-based; conditions: Homo sapiens; NCI-H889 cells, 48 hr incubation
Method: as §8

[5] = test system: SCLC cell line NCI-H1963; assay: CellTitre-Glow luminescent cytotoxicity assay, NCI-H1963; format: cell-based; conditions: Homo sapiens; NCI-H1963 cells, 48 hr incubation
Method: as §8

[6] = test system: mouse embryo fibroblasts (MEFs): wild type, Bax/Bak double knockout, Noxa-expressing, Bad-expressing; assay: Cell viability assay on mouse embryo fibroblasts (propidium iodide uptake); format: cell-based; conditions: propidium iodide uptake after 24 hours
Method: FIG. 1 graphically depicts the effect of Compound 1 (FIG. 1A) and Etoposide (FIG. 1B), at increasing concentrations, on the % viability of certain mouse embryo fibroblast (MEF) cells as assessed by propidium iodide uptake after 24 hours. Noxa and Bad were introduced by retrovirally infecting the cells with pMIG retroviruses as described by Chen et al., 2005.
The efficacy of the compounds of the present invention can also be determined in cell based killing assays using a variety of cell lines and mouse tumor models. For example, their activity on cell viability can be assessed on a panel of cultured tumorigenic and non-tumorigenic cell lines, as well as primary mouse or human cell populations, e.g. lymphocytes. For these assays, 5,000-20,000 cells are cultured at 37° C. and 10% CO2 in appropriate growth media, eg: 100 μL Dulbecco's Modified Eagle's medium supplemented with 10% foetal calf serum, asparaginase and 2-mercaptoethanol in the case of pre-B Eμ-Myc mouse tumors in 96 well plates. […] Cell viability is determined by the ability of the cells to exclude propidium iodide (10 μg/mL by immunofluorescence analysis of emission wavelengths of 660-675 nm on a flow cytometer (BD FACScan). Alternatively, a high throughput calorimetric assay such as the Cell Titre 96 could be used. Aqueous Non-Radioactive Cell Proliferation Assay (Promega) may be used. Cell death by apoptosis is confirmed by pre-incubation of the cells with 50 μM of a caspase inhibitor such as zVAD-fmk.
Neutralisation of both Bcl-xL and Mcl-1 anti-apoptotic proteins in normal cells is required before a cell undergoes apoptosis via the downstream Bax/Bak pathway [Chen et al., 2005; Willis et al., 2005]. A compound that only targets Bcl-xL should not affect normal cells, but could kill certain cancer cells if they rely more on Bcl-xL and less on Mcl-1 for survival. To mirror this, compound 1 was tested for its effect on survival of wild type (wt) mouse embryo fibroblasts (MEFs), Bax/Bak double knockout (BB DKO) MEFs, MEFs that expressed Noxa, and MEFs that expressed Bad. Noxa specifically neutralizes Mcl-1.

Chain of GST tagged BCl-xL ΔC25 protein (Q07817 1-208 limits assumed): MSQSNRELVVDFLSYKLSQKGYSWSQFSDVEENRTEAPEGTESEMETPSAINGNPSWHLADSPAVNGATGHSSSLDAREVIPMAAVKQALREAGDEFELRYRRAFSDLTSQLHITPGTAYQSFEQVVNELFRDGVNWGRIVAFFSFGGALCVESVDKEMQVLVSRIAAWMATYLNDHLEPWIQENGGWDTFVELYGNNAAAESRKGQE

Row | SMILES | IC50 [1] [nM] | IC50 [2] [nM] | EC50 [3] [µM] | EC50 [4] [µM] | EC50 [5] [µM] | Selectivity of killing of Noxa-expressing MEFs versus MEFs where both Bcl-xL and Mcl-1 are protective (% viability) ([6]; FIG. 1A/1B) | Effect on Bax/Bak double knockout (BB DKO) MEFs ([6]; FIG. 1B)
1 | CN(C)CC[C@H](CSc1ccccc1)Nc1ccc(S(=O)(=O)Nc2ncnc3cc(N4CCN(CC5=C(c6ccc(Cl)cc6)CCC(C)(C)C5)CC4)ccc23)cc1S(=O)(=O)C(F)(F)F [Compound 6, N-(7-{4-[2-(4-Chloro-phenyl)-5,5-dimethyl-cyclohex-1-enylmethyl]-piperazin-1-yl}-quinazolin-4-yl)-4-((R)-3-dimethylamino-1-phenylsulfanylmethyl-propylamino)-3-trifluoromethanesulfonyl-benzenesulfonamide] | 3 | 20000 | – | – | – | – | –
2 | CC1(C)CCC(c2ccc(Cl)cc2)=C(CN2CCN(c3ccc4c(NS(=O)(=O)c5ccc(N[C@H](CCN6CCOCC6)CSc6ccccc6)c([N+](=O)[O-])c5)ncnc4c3)CC2)C1 [Compound 7, N-(7-{4-[2-(4-Chloro-phenyl)-5,5-dimethyl-cyclohex-1-enylmethyl]-piperazin-1-yl}-quinazolin-4-yl)-4-((R)-3-morpholin-4-yl-1-phenylsulfanylmethyl-propylamino)-3-nitro-benzenesulfonamide] | 20 | 10000 | – | – | – | – | –
3 | CN(C)CC[C@H](CSc1ccccc1)Nc1ccc(S(=O)(=O)Nc2ncnc3cc(N4CCN(Cc5ccccc5-c5ccc(Cl)cc5)CC4)ccc23)cc1S(=O)(=O)C(F)(F)F [Compound 2, N-{7-[4-(4′-Chloro-biphenyl-2-ylmethyl)-piperazin-1-yl]-quinazolin-4-yl}-4-((R)-3-dimethylamino-1-phenylsulfanylmethyl-propylamino)-3-trifluoromethanesulfonyl-benzenesulfonamide] | 6 | 50000 | – | – | – | – | –
4 | COc1cc([C@@H]2c3cc4c(cc3[C@@H](O[C@@H]3O[C@@H]5CO[C@@H](C)O[C@H]5[C@H](O)[C@H]3O)[C@H]3COC(=O)[C@H]23)OCO4)cc(OC)c1O [etoposide] | – | – | – | – | – | less selectively than compound 1 | resistance of BB DKO MEFs

Second part, led by results:

Row | IC50 [1] [nM] | IC50 [2] [nM] | SMILES | EC50 [3] [µM] | EC50 [4] [µM] | EC50 [5] [µM] | Selectivity of killing of Noxa-expressing MEFs versus MEFs where both Bcl-xL and Mcl-1 are protective (% viability) ([6]; FIG. 1A/1B) | Effect on Bax/Bak double knockout (BB DKO) MEFs ([6]; FIG. 1B)
5 | 29 | 10000 | CC1(C)CCC(c2ccc(Cl)cc2)=C(CN2CCN(c3ccc4c(NS(=O)(=O)c5ccc(N[C@H](CCN6CCOCC6)CSc6ccccc6)c(S(=O)(=O)C(F)(F)F)c5)ncnc4c3)CC2)C1 [Compound 8, N-(7-{4-[2-(4-Chloro-phenyl)-5,5-dimethyl-cyclohex-1-enylmethyl]-piperazin-1-yl}-quinazolin-4-yl)-4-((R)-3-morpholin-4-yl-1-phenylsulfanylmethylpropylamino)-3-trifluoromethanesulfonyl benzenesulfonamide] | – | – | – | – | –
6 | 3 | 7000 | CN(C)CC[C@H](CSc1ccccc1)Nc1ccc(S(=O)(=O)Nc2ncnc3cc(N4CCN(CC5=C(c6ccc(Cl)cc6)CCC(C)(C)C5)CC4)ccc23)cc1[N+](=O)[O-] [Compound 5, N-(7-{4-[2-(4-Chloro-phenyl)-5,5-dimethyl-cyclohex-1-enylmethyl]-piperazin-1-yl}-quinazolin-4-yl)-4-((R)-3-dimethylamino-1-phenylsulfanylmethyl-propylamino)-3-nitro-benzenesulfonamide] | – | – | – | – | –
7 | 34 | 6000 | O=[N+]([O-])c1cc(S(=O)(=O)Nc2ncnc3cc(N4CCN(Cc5ccccc5-c5ccc(Cl)cc5)CC4)ccc23)ccc1N[C@H](CCN1CCOCC1)CSc1ccccc1 [Compound 3, N-{7-[4-(4′-Chloro-biphenyl-2-ylmethyl)-piperazin-1-yl]-quinazolin-4-yl}-4-((R)-3-morpholin-4-yl-1-phenylsulfanylmethyl-propylamino)-3-nitro-benzenesulfonamide] | 3.7 | 1.3 | 1.4 | – | –
8 | 16 | – | O=S(=O)(Nc1ncnc2cc(N3CCN(Cc4ccccc4-c4ccc(Cl)cc4)CC3)ccc12)c1ccc(N[C@H](CCN2CCOCC2)CSc2ccccc2)c(S(=O)(=O)C(F)(F)F)c1 [Compound 4, N-{7-[4-(4′-Chloro-biphenyl-2-ylmethyl)-piperazin-1-yl]-quinazolin-4-yl}-4-((R)-3-morpholin-4-yl-1-phenylsulfanylmethyl-propylamino)-3-trifluoromethanesulfonyl-benzenesulfonamide] | 0.63 | 0.82 | 0.4 | – | –
